Source: US20080214606A1, “Methods for the Identification and Use of Compounds Suitable for the Treatment of Drug Resistant Cancer Cells” (The Government of the United States of America as …, priority 2004, published 2008)

Experiments:
ABCC2 = molecular target: T1, ABCC2 (Homo sapiens, UniProt Q92887); test: Correlation of ABCC2 expression with drug sensitivity across the NCI-60; assay type: cell-based; conditions: Pearson correlation of ABCC2 expression with sensitivity of the 60 cell lines; 1429 compounds; inverse, p < 0.0001
T1 construct: profiled in 60 diverse cancer cell lines (the NCI-60) using real-time RT-PCR; endogenous in cells; host or cells: NCI-60 human cancer cell lines
Description: (§1) Expression levels are measured by real-time quantitative RT-PCR using the LightCycler RNA Amplification SYBR Green kit and a LightCycler machine (Roche Biochemicals, Indianapolis, Ind.). […] When possible, the amplicons are designed to encompass exon-intron boundaries to avoid amplification of genomic DNA. Since the Syber Green assay detects accumulation of double stranded DNA, primers are selected (from a battery consisting of about 200 primers) that amplified a single product of the correct size.
(§2) During PCR amplification, fluorescence emission is measured and recorded in real time by the LightCycler. Crossing point values are calculated, using the LightCycler software package, by the Fit Points analysis method, with baseline fluorescence set at 1. The SyberGreen assay measures accumulation of double-stranded products, and the appearance of primer dimers limits quantitation at high cycle numbers. The specificity of amplified products is verified by melting-curve analysis and agarose gel electrophoresis (not shown). The raw results are expressed as number of cycles to reach the crossing point. If the desired product is not detected, the corresponding value is adjusted to crossing points indicating no expression. To assess the contribution of experimental artifacts, selected cell lines are assessed in replicate.

ABCD1 = molecular target: T2, ABCD1 (Homo sapiens, UniProt P33897); test: Correlation of ABCD1 expression with drug sensitivity across the NCI-60; assay type: cell-based; conditions: Pearson correlation of ABCD1 expression with sensitivity of the 60 cell lines; 1429 compounds; inverse, p < 0.0001
T2 construct: profiled in 60 diverse cancer cell lines (the NCI-60) using real-time RT-PCR; endogenous in cells; host or cells: NCI-60 human cancer cell lines
Description: as §1, §2

ABCB1 = ABCB1 (Homo sapiens, UniProt P08183); test: Correlation of ABCB1 expression with drug sensitivity across the NCI-60
Description: Expression levels are measured by real-time quantitative RT-PCR using the LightCycler RNA Amplification SYBR Green kit and a LightCycler machine (Roche Biochemicals, Indianapolis, Ind.). Specific oligonucleotide probes are designed for each of the ABC transporters using DNAStar Primer Select (DNASTAR Inc.), and they may be synthesized at Lofstrand Laboratories (Gaithersburg, Md.). When possible, the amplicons are designed to encompass exon-intron boundaries to avoid amplification of genomic DNA. Since the Syber Green assay detects accumulation of double stranded DNA, primers are selected (from a battery consisting of about 200 primers) that amplified a single product of the correct size.
RT-PCR is carried out on 150 ng total RNA, in the presence of 250 nM specific primers. Following reverse transcription (20 min at 50° C.), the PCR reaction consists of 45 cycles of denaturation (15 sec at 95° C.), annealing (30 sec at 58° C.), and elongation (30 sec at 72° C.). No-template (water) reaction mixtures are prepared as negative controls.
During PCR amplification, fluorescence emission is measured and recorded in real time by the LightCycler. Crossing point values are calculated, using the LightCycler software package, by the Fit Points analysis method, with baseline fluorescence set at 1. The SyberGreen assay measures accumulation of double-stranded products, and the appearance of primer dimers limits quantitation at high cycle numbers. […] The raw results are expressed as number of cycles to reach the crossing point. If the desired product is not detected, the corresponding value is adjusted to crossing points indicating no expression. To assess the contribution of experimental artifacts, selected cell lines are assessed in replicate.
Both sets are available at http://discover.nci.nih.gov. The two are combined to form a joint dataset that includes 1429 compounds.
To determine quantitatively how well the 47 genes cluster the cell lines by their tissues of origin, a statistical method is employed wherein the kappa statistic is used to indicate how well the observed clusters correspond to the nine tissue-of-origin classifications. […] To control the overall false type 1 error rate, both a step-down procedure (Westfall and Young, 1993, Resampling-Based Multiple Testing: Examples and Methods for p-value Adjustment (New York: Wiley)) and a step-up procedure (Reiner et al., 2003, Bioinformatics 19:368-375) were employed to adjust for multiple testing of all 47 genes simultaneously. In the Benjamini-Hochberg procedure the p-values are computed in the standard way by permutation, assuming that all distributions are exchangeable: the number of values in the permuted data with correlations over a threshold, divided by the number of compounds and by the number of permutations. In this analysis, the False Discovery Rate (q-value) at which each compound would be declared was calculated using the step-up procedure for positively correlated test statistics (again true because all correlations being compared are computed against the same ABC gene): in this procedure the first q-value for the largest correlation is the Bonferroni-corrected p-value for that gene; then further q-values are calculated as qj=max(pj*1429/j, qj-1). This procedure limits the expected proportion of false positives in the list 1, . . . , j to at most qj.

T2 sequence (P33897 whole entry): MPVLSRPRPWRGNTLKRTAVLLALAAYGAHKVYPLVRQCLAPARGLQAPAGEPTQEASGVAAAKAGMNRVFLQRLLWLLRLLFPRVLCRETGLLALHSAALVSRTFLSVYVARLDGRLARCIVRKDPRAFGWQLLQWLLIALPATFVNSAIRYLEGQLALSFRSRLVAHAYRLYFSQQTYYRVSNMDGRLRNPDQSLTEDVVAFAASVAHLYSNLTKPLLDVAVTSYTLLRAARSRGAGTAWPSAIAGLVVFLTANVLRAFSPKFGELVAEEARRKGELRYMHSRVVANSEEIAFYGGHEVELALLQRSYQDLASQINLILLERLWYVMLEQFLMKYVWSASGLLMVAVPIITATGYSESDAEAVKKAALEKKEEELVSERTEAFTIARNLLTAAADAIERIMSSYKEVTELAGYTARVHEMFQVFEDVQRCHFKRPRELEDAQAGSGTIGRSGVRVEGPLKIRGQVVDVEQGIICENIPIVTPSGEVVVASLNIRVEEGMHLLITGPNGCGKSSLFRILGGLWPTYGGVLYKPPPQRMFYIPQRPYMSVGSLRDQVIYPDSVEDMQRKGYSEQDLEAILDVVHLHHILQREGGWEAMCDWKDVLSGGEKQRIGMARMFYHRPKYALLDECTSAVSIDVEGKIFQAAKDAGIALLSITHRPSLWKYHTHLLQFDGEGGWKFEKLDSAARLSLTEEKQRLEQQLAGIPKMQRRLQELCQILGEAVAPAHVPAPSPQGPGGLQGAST
T1 sequence (Q92887 whole entry): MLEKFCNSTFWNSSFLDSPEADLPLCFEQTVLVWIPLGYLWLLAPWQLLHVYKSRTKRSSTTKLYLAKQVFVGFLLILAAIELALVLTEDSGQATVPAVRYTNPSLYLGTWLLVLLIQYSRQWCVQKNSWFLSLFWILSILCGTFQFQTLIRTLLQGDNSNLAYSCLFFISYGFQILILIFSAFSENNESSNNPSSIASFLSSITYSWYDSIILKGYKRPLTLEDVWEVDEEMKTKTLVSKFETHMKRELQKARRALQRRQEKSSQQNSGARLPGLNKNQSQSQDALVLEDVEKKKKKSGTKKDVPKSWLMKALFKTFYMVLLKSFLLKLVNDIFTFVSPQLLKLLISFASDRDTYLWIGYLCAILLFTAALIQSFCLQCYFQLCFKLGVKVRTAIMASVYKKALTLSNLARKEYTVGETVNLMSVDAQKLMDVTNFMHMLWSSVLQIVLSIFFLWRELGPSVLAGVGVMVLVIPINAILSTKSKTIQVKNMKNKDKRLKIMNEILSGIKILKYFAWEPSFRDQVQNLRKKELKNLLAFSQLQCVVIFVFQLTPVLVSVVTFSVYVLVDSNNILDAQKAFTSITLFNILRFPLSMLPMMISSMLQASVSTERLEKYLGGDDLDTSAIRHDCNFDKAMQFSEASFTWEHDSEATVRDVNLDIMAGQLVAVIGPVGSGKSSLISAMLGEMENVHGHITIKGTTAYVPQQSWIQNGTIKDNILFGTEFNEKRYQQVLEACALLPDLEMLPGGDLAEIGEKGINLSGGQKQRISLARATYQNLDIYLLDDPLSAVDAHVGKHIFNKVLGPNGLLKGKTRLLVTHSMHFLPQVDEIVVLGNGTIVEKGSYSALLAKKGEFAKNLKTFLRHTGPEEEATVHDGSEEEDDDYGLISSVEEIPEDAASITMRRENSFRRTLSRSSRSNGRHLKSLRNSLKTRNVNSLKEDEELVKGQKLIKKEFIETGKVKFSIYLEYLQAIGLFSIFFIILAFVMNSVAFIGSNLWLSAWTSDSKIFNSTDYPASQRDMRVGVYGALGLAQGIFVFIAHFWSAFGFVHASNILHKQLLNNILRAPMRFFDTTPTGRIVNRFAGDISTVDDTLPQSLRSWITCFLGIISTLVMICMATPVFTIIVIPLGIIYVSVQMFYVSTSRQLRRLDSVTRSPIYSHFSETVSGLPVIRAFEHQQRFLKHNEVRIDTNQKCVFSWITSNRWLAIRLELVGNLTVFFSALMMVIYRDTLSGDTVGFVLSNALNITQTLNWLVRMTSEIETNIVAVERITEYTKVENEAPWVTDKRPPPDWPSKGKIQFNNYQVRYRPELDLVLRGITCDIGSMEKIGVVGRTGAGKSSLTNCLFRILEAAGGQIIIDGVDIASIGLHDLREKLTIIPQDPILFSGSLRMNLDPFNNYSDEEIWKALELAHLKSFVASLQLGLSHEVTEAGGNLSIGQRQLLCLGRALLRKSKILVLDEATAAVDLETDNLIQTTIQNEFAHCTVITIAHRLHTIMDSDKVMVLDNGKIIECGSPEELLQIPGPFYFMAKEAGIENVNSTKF
Chain of ABCB1 (P08183 whole entry): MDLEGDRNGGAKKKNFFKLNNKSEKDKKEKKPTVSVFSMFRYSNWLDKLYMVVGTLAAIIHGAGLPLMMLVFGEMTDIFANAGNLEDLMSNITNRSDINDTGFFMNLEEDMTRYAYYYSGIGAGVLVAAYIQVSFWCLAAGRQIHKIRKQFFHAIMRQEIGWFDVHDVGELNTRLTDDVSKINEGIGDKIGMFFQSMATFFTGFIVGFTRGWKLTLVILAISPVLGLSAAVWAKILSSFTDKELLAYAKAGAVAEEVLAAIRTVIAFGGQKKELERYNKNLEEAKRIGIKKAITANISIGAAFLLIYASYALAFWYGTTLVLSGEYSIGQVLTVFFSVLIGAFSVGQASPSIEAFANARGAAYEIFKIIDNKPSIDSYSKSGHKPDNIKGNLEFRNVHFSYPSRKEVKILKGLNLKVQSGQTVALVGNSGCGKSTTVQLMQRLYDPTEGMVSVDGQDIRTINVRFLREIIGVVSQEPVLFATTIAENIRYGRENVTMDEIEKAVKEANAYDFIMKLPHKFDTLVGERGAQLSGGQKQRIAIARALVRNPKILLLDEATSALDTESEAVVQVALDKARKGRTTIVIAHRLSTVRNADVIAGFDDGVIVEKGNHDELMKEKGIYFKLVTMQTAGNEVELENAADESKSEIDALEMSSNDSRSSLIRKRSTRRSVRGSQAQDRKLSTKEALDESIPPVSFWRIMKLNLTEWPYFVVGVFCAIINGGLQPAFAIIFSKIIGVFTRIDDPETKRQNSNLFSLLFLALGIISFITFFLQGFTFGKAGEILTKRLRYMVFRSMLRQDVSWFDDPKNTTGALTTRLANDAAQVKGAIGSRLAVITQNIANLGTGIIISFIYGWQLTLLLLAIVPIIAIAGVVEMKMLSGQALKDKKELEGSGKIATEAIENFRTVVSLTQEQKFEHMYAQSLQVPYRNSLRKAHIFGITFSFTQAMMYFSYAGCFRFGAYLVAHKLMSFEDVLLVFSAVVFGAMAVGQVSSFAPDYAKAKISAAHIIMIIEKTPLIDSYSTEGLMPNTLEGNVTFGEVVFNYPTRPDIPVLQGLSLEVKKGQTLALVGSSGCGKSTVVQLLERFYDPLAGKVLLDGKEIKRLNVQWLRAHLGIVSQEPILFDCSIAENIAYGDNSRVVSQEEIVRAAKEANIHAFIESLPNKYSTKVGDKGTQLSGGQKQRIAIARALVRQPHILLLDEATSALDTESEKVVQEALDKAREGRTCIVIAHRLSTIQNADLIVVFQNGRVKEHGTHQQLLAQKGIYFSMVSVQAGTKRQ

Row | Structure (SMILES) | Correlation (ABCD1) | Pearson's Correlation Coeff (ABCB1) | other results
1 | CC(C)OC(=O)c1ccc(CCC2=CC(=O)C=CC2=O)cc1 [NSC 684496] | – | – | Correlation (ABCC2): −0.4340
2 | CCCCCCCCCCCCCC(=O)NO [NSC 634458] | – | – | Correlation (ABCC2): −0.4326
3 | COC(=O)[C@@]12C(=O)C=CC(=O)[C@@H]1C1C(=CC2COC(C)=O)O[C@@H]2OC3(CCCCC3)O[C@H]12 (some centres unmarked) [NSC 637399] | – | – | Correlation (ABCC2): −0.4969
4 | CCN(CC)CCn1ccc(=O)c2cc3c(=O)ccn(CCN(CC)CC)c3c(C)c21 [NSC 645161] | −0.5134 | – | –
5 | CN(O)C(=O)c1ccc(OCc2cccc(Cl)c2)cc1 [NSC 692759] | −0.5034 | 0.4149 | –
6 | Nc1nc(=S)c2ncn(C3CC(O)C(CO)O3)c2[nH]1 (centres unmarked) [NSC 71851] | −0.4425 | – | –
7 | NC(=O)c1[nH]nc([C@@H]2O[C@H](CO)[C@@H](O)[C@H]2O)c1O [NSC 143095] | −0.5337 | 0.2763 | –
8 | COc1ccc2[nH]c3c(C)c4ccncc4c(C)c3c2c1 [NSC 69187] | −0.5711 | – | –
9 | Cc1c2ccncc2c(C)c2c1[nH]c1ccccc12 [NSC 71795] | −0.4642 | – | –
10 | O=c1cc(O)ccn1[C@@H]1O[C@H](CO)[C@@H](O)[C@H]1O [NSC 126849] | −0.4214 | 0.2357 | –
11 | OCCOc1ccc(-c2cc(-c3ccccn3)nc(-c3ccccn3)c2)cc1 [NSC 640499] | −0.4694 | – | –
12 | COc1ccc2c(c1)c(=O)c1c(NCCCN(C)C)ccc3ncn2c31.Cl [NSC 645813] | −0.4824 | – | –
13 | COc1ccc2c(c1)-c1nn(CCCN(C)C)c3ccc([N+](=O)[O-])c(c13)N2 [NSC 627168] | −0.4599 | – | –
14 | CN(C)CCCNc1ccc2nnn3c4ccc(O)cc4c(=O)c1c23 [NSC 645830] | −0.4258 | – | –
15 | CCN(CC)CCNc1ccc2ncn3c4ccc(OC)cc4c(=O)c1c23 [NSC 645812] | −0.4825 | – | –
16 | CCN(CC)CCCNc1ncc(C)c2c1c1ccc3c(O)cccc3c1n2C [NSC 653438] | −0.4252 | – | –
17 | c1ccc2c(c1)Nc1cccc3c1c-2nc1ccccc13 [NSC 670692] | −0.4001 | – | –
18 | CCN(CC)CCCNc1ccc2nnn3c4ccc(O)cc4c(=O)c1c23 [NSC 645814] | −0.4346 | – | –
19 | O=C1/C(=C/c2ccc(F)cc2)CNC/C1=C\c1ccc(F)cc1 [NSC 685126] | −0.4464 | – | –
20 | CN(C)CCCNc1ccc2c(=O)n(CCN(C)C)c(=O)n3c4ccccc4c(=O)c1c23 [NSC 687308] | −0.4236 | – | –
21 | CCCCCCOc1ccc(C(=O)N(C)O)cc1 [NSC 692758] | −0.5012 | 0.4825 | –
22 | Cc1c2ccncc2c(C)c2c1[nH]c1ccc(OCCN(C)C)cc12 [NSC 338258] | −0.5453 | – | –
23 | [Se]=P(c1ccccc1)(c1ccccc1)c1ccc(C(c2ccccc2)=P(c2ccccc2)(c2ccccc2)c2ccccc2)cc1 [NSC 676864] | – | – | Correlation (ABCB1): −0.6546
24 | CC1=C(N2CC2)C(=O)C(C)=C(N2CC2)C1=O [NSC646714] | – | 0.3262 | –
25 | CCc1nc(N)nc(N)c1-c1ccc(Cl)c([N+](=O)[O-])c1 [NSC302325] | – | 0.2979 | –

Row | Structure (SMILES) | Correlation (ABCD1) | Pearson's Correlation Coeff (ABCB1) | other results
26 | Oc1c(CN2CCN(c3ccccc3)CC2)cc(Br)c2cccnc12 [NSC 117028] | – | – | Correlation of antiproliferative activity with ABCB1 expression (ABCB1): 0.3579
27 | CCc1ccccc1N1CCN(C(=O)c2cc(OC)c(OC)c(OC)c2)CC1 [NSC56030] | – | 0.2372 | –
28 | CC[C@@]1(O)C[C@H](O[C@H]2C[C@H](N(C)C)[C@H](O)[C@H](C)O2)c2c(cc3c(c2O)C(=O)c2c(O)ccc(O)c2C3=O)[C@H]1C(=O)OC [NSC267229] | – | 0.3505 | –
29 | CN(C)CCNC(=O)c1cc(Cl)cc2cc3ccccc3nc12.Cl [NSC 617966] | – | – | Correlation of antiproliferative activity with ABCB1 expression (ABCB1): 0.3715
30 | COc1cccc2c1C(=O)c1c(O)c3c(c(O)c1C2=O)C[C@@](O)(C(=O)CO)C[C@@H]3O[C@H]1C[C@H](N)[C@H](O)[C@H](C)O1 [doxorubicin, reference compound] | – | – | Relationship between drug sensitivity and ABCB1 expression (in words) (ABCB1): striking inverse correlations
31 | Cc1ccc2nc3c(C(=O)NCCN(C)C)cccc3cc2c1.Cl [NSC 617963] | – | – | Correlation of antiproliferative activity with ABCB1 expression (ABCB1): 0.5317
32 | Cc1c2ccncc2c(C)c2c1[nH]c1ccc(Cl)cc12 [NSC176326] | – | 0.3552 | –
33 | C[n+]1c2ccccc2n2c3ccccc3c(NCCCn3ccnc3)c(C#N)c21.Cc1ccc(S(=O)(=O)[O-])cc1 [NSC694268] | – | – | Correlation (ABCB1): −0.5914
34 | Nc1nc(N)c2nc(CNc3ccc(C(=O)N[C@@H](CCCNC(=O)c4ccccc4C(=O)O)C(=O)O)cc3)cnc2n1 [NSC633713] | – | 0.2908 | –
35 | CC(C)=CCC[C@@H](C)C1=C(Nc2ccccc2Cl)C(O)=C(C)C(=O)C1=O [NSC697138] | – | 0.3551 | –
36 | CCc1nc(N)nc(N)c1-c1ccc2c(c1)nnn2CCc1ccccc1 [NSC382053] | – | 0.3841 | –
37 | O=[N+]([O-])c1ccc(O)c(/C=N/NC(=S)N2CCCCC2)c1 [NSC689530] | – | 0.3398 | –
38 | CNC(=O)C(C)C1CCC2(C)C=CC(=O)C(C)=C2C1O (centres unmarked) [NSC 623069] | – | – | Correlation of antiproliferative activity with ABCB1 expression (ABCB1): 0.459
39 | Nc1nc(N)c2nc(CNc3ccc(C(=O)NC(CCC(=O)O)C(=O)O)cc3F)cnc2n1.O=C(O)C(F)(F)F (centres unmarked) [NSC 607301] | – | – | Correlation of antiproliferative activity with ABCB1 expression (ABCB1): 0.3523
40 | O=C(N[C@@H](c1ccccc1)[C@@H](O)C(=O)OCc1ccc2c(c1)OCO2)c1ccccc1 [NSC 625349] | – | – | Correlation of antiproliferative activity with ABCB1 expression (ABCB1): 0.3935
41 | Cc1cc(C)n(-c2nc3ccccc3c(=O)[nH]2)n1 [NSC691081] | – | 0.4305 | –
42 | CCc1nc(N)nc(N)c1-c1ccc2nn(-c3ccccc3)[n+]([O-])c2c1 [NSC382054] | – | 0.3151 | –
43 | O=[N+]([O-])C(=C\c1cccs1)/C(=C/c1cccs1)[N+](=O)[O-] [NSC693131] | – | 0.2788 | –
44 | COc1c(C)c(C/C=C(\C)CCCCO[Si](c2ccccc2)(c2ccccc2)C(C)(C)C)c(OC)c(OC)c1OC [NSC 687141] | – | – | Correlation of antiproliferative activity with ABCB1 expression (ABCB1): 0.3774
45 | CN(C)CCN1C(=O)c2cccc3cc([N+](=O)[O-])cc(c23)C1=O [NSC300288] | – | 0.2734 | –
46 | O=c1cc(-c2ccccc2F)[nH]c2cc3c(cc12)OCO3 [NSC656158] | – | 0.2218 | –
47 | O=C(/C=C/c1ccc(Cl)cc1)c1ccccc(=O)c1O [NSC 356777] | – | – | Correlation of antiproliferative activity with ABCB1 expression (ABCB1): 0.4021
48 | CC1(C)C2CC1C(C(O)C1c3cc(-c4ccccn4)ncc3C3CC1C3(C)C)c1cc(-c3ccccn3)ncc12 (centres unmarked) [NSC697653] | – | 0.1718 | –
49 | C[C@]12CC[C@@H]3c4cc(OCC(F)(F)F)c(O)cc4/C(=N/O)C[C@H]3[C@@H]1CC[C@@H]2O [NSC681683] | – | 0.2079 | –
